According to patent US20160015064A1, “COMPOUNDS, COMPOSITIONS, AND METHODS FOR MODULATING SWEET TASTE” (CHROMOCELL CORPORATION, priority 2013, published 2016):

Legend:
[1] = test system: perception of the sweet taste of an aqueous solution of sweetener; assay: Ranking sip and spit test of sweetness perception (R index); format: in vivo, humans; settings: vs negative control
Method: The effect of the test compounds on the perception of the sweet taste of an aqueous solution of sweetener in humans was evaluated using a ranking “sip and spit” method.
The aqueous sweetener solutions were prepared by adding, fructose, sucrose or glucose (by weight), to water to achieve the desired concentration.
Compounds were first prepared as a 500-fold concentrated stock solution in 100% ethanol. These concentrated stocks were then added to the aqueous sweetener solutions to result in a final ethanol concentration of 0.2%. The control (positive and negative) samples were also normalized to 0.2% ethanol.
In the ranking test used for compound evaluation, taste panelists (n=15), rank samples in increasing order of sweetness. One set, comprising of 6 samples, was presented to each panelists at a given time and are asked to rank them in order of increasing sweetness.
Panelists were instructed not to eat or drink (except water) for at least 1 h before the test. During the test, panelists were instructed to sip each sample, swirl it around their mouth and then expectorate. After tasting each set, panelists were instructed to rank the 6 samples within the set from least sweet to most sweet. Where rank 1—is lowest in sweetness and rank 6—is highest in sweetness. Panelists cleansed their palates by rinsing with water, eating a cracker and waiting for an interval of 10 minutes. All samples were tasted at ambient temperatures. Each sample was tasted twice.
R index analysis was utilized to determine the degree of difference between a test and control sample. It indicates the level of discrimination between two samples. […] A positive control sample was used to assess the ability of the panelists to accurately discriminate sweetness perception differences from the negative control.

[2] = test system: perception of the sweet taste in an aqueous environment; assay: Trained descriptive analysis (DA) panel, sweet attribute; format: in vivo, humans; settings: for DA Panel Average Sweetness Intensity Score (on 15 cm scale) / Fold enhancement of sweetness perception as compared to control sweetener solution / Perceived inherent sweetness compared to solubilizing agent alone / Perceived sweetness compared to solubilizing agent alone (inherent sweetness): 35 ppm compound plus solubilizing agent; for Perceived inherent sweetness compared to solubilizing agent alone: citric acid-citrate solution pH 3; for Compound effects beyond the additive effect of inherent sweetness: 4% fructose and 8% sucrose; for Compound effects beyond the additive effect of inherent sweetness / Perceived sweetness vs control sweetener solutions (FIG. 2) / Perceived sweetness vs control sweetener solutions (FIG. 1): 35 ppm; for Perceived sweetness vs control sweetener solutions (FIG. 2) / Perceived sweetness vs control sweetener solutions (FIG. 1): fructose and sucrose, ** p<0.01; for Perceived sweetness compared to solubilizing agent alone (inherent sweetness): water pH 7
Method: The effect of the test compounds on the perception of the sweet taste in an aqueous environment, in the absence or presence of carbohydrate sweeteners, was evaluated using a descriptive analysis methodology with a group of trained panelists, as follows.
Candidate panelists were recruited, with prescreening and personal interviews, and were assessed for their ability to detect, recognize and differentiate basic taste attributes or mixtures thereof as part of a standardized acuity test. These candidate panelists were also assessed for their innate ability to identify flavors, and to rank on intensity scales. Other senses such as smell and vision were also included as part of the assessment. Candidates also were screened for their ability to use the language to describe and articulate ideas.
Selected candidates proceeded to training as a group in three phases: (1) Lexicon development, (2) Concept alignment, and (3) Scaling descriptors. During lexicon development, panelists evaluated products appropriate for use in the study to generate and align on terms describing the flavor, taste, aromatic, trigeminal, and temporal attributes. During concept alignment, the panel evaluated the products mentioned above to clarify and confirm the attributes that were generated during lexicon development using reference standards that appropriately define each attribute; these are either physical references (e.g. sucrose solutions) or verbal descriptions (e.g. overall flavor). Product terms and concepts were validated during this portion of the study.
In the last phase, scaling descriptors, the panel participated in a series of exercises focused on ordering and ranking samples according to relative attribute intensity, measuring attribute intensity using a defined length of line scale. Whenever possible, different levels or concentration of references were used as anchors to facilitate use of the scale. Panelists were provided with blinded references at this stage to evaluate their understanding and perception of the scale.
The panel used in this example was trained to reference sweet attributes in an absolute manner, such that a particular concentration of sweetener is always measured by the panelists at the same point using a 15 cm line scale where each cm represents a 1% increase in sucrose to cover the range of 0% to 15% sucrose. For the rest of the attributes, the panel was trained using a hybrid approach between descriptive analysis methods (e.g. quantitative descriptive analysis, the sensory spectrum, etc.) well-known to those skilled in the art.
The trained panel was then used for a descriptive analysis assessment for Compounds 1, 2 and 3 in aqueous solutions at pH 3 and pH 7. Each of the three compounds was tested at 35 ppm in sucrose and fructose sweeteners. In addition, Compounds 1, 2 and 3 were also examined in water at pH 3 and pH 7 to assess for any inherent sweetness.
The aqueous sweetener solutions were prepared by adding, fructose or sucrose (by weight), to water to achieve the desired concentration. Aqueous sucrose solutions at pH 3 were buffered using a final concentration of 0.096% Citric Acid plus 0.036% Sodium Citrate while aqueous fructose solutions at pH 3 were buffered using a final concentration of 0.06% Citric Acid and 0.0225% Sodium Citrate.
Compounds were first prepared as a […] concentrated stock solution in 100% ethanol. These concentrated stocks were then added to the aqueous sweetener solutions to result in a final ethanol concentration of 0.2%. In addition to compounds, a solubilizing agent at a final concentration of 0.02% was added to the aqueous sweetener solutions. Control samples were also balanced with 0.2% ethanol and in certain cases 0.02% solubilizing agent.
Both control (aqueous sweetener solutions without compound) and variant (aqueous sweetener solutions with compound) samples were blinded and randomized (by sweetener and pH blocks). […]

[3] = citric acid-citrate solution pH 3, no sweetener
[4] = water pH 7, no sweetener, 1 cm = 1% sucrose

`COc1ccc(C2CC(=O)c3c(O)cccc3O2)cc1O` (single isomer, unassigned) [Compound 2, 5-hydroxy-2-(3-hydroxy-4-methoxyphenyl)chroman-4-one] was tested, and the “R Index Score” value ([1]; 4% fructose test sample, compound 10 ppm) was 81, the “R Index Score” value ([1]; 5% sucrose test sample, compound 10 ppm, significant at R index ≧60) was 90 and the “DA Panel Average Sweetness Intensity Score (on 15 cm scale)” value ([2]; 4% fructose, pH 3) was 6.93. The “Fold enhancement of sweetness perception as compared to control sweetener solution” value (“Fold enhancement of sweetness perception” for short) ([2]; 4% fructose, pH 3) was 1.38X, the “DA Panel Average Sweetness Intensity Score (on 15 cm scale)” value ([2]; 4% fructose, pH 7) was 7.08 and the “Fold enhancement of sweetness perception” value ([2]; 4% fructose, pH 7) was 1.62X. For the same compound, the “DA Panel Average Sweetness Intensity Score (on 15 cm scale)” value ([2]; 8% sucrose, pH 3) was 9.21, the “Fold enhancement of sweetness perception” value ([2]; 8% sucrose, pH 3) was 1.28X and the “DA Panel Average Sweetness Intensity Score (on 15 cm scale)” value ([2]; 8% sucrose, pH 7) was 10.15. The “Fold enhancement of sweetness perception” value ([2]; 8% sucrose, pH 7) was 1.35X, the “DA Panel Average Sweetness Intensity Score (on 15 cm scale)” value [2, 3] was 1.27 and the “Perceived inherent sweetness compared to solubilizing agent alone” value [2] was “do not show further significant increase in perceived inherent sweetness”. For the same compound, the “Compound effects beyond the additive effect of inherent sweetness” value ([2]; pH 3) was “super-additive effects”, the “Perceived sweetness vs control sweetener solutions (FIG. 2)” value ([2]; pH 3) was “significant increase in perceived sweetness” and the “Compound effects beyond the additive effect of inherent sweetness” value ([2]; pH 7) was “super-additive effects”. The “Perceived sweetness vs control sweetener solutions (FIG. 1)” value ([2]; pH 7) was “significant increase in perceived sweetness”, the “DA Panel Average Sweetness Intensity Score (on 15 cm scale)” value [2, 4] was 1.76 and the “Perceived sweetness compared to solubilizing agent alone (inherent sweetness)” value [2] was “further increase in perceived sweetness”.

With `COc1ccc(C2CC(=O)c3c(O)cccc3O2)cc1O` (single isomer, unassigned) [Compound 3, 5-hydroxy-2-(3-hydroxy-4-methoxyphenyl)chroman-4-one] the “R Index Score” value ([1]; 5% sucrose test sample, compound 2.5 ppm) was 78, the “DA Panel Average Sweetness Intensity Score (on 15 cm scale)” value ([2]; 4% fructose, pH 3) was 7.09 and the “Fold enhancement of sweetness perception” value ([2]; 4% fructose, pH 3) was 1.41X. For the same compound, the “DA Panel Average Sweetness Intensity Score (on 15 cm scale)” value ([2]; 4% fructose, pH 7) was 7.08, the “Fold enhancement of sweetness perception” value ([2]; 4% fructose, pH 7) was 1.62X and the “DA Panel Average Sweetness Intensity Score (on 15 cm scale)” value ([2]; 8% sucrose, pH 3) was 9.23. For the same compound, the “Fold enhancement of sweetness perception” value ([2]; 8% sucrose, pH 3) was 1.28X, the “DA Panel Average Sweetness Intensity Score (on 15 cm scale)” value ([2]; 8% sucrose, pH 7) was 10.22 and the “Fold enhancement of sweetness perception” value ([2]; 8% sucrose, pH 7) was 1.36X. The “DA Panel Average Sweetness Intensity Score (on 15 cm scale)” value [2, 3] was 1.58, the “Perceived inherent sweetness compared to solubilizing agent alone” value [2] was “do not show further significant increase in perceived inherent sweetness” and the “Compound effects beyond the additive effect of inherent sweetness” value ([2]; pH 3) was “super-additive effects”. For the same compound, the “Perceived sweetness vs control sweetener solutions (FIG. 2)” value ([2]; pH 3) was “significant increase in perceived sweetness”, the “Compound effects beyond the additive effect of inherent sweetness” value ([2]; pH 7) was “super-additive effects” and the “Perceived sweetness vs control sweetener solutions (FIG. 1)” value ([2]; pH 7) was “significant increase in perceived sweetness”. The “DA Panel Average Sweetness Intensity Score (on 15 cm scale)” value [2, 4] was 1.58 and the “Perceived sweetness compared to solubilizing agent alone (inherent sweetness)” value [2] was “further increase in perceived sweetness”.
